# Values quoted from earlier work in patent US7056858B2 (Varian, Inc., priority 2002, dated 2006).
# Conditions: for π value: dipolarity/dipolarizability descriptor; for Σα value: hydrogen-bond acidity descriptor; for Σβ value: hydrogen-bond basicity descriptor
Structure (SMILES),π value,Σα value,Σβ value
NC=O [formamide],0.46,0.33,0.21
"CN(C)C=O [N,N dimethylformamide]",0.56,0.00,0.44
CN1CCCC1=O [N-methylpyrrolidone],0.57,0.00,0.43
